{"source": "patent US20110118464A1", "about": "“HALOGENATED XANTHINE DERIVATIVES AND PRECURSORS THEREOF FOR ANTI-CANCER AND ANTI-METASTASIS ACTIVITY AND PREPARING METHOD THEREOF” (Kaohsiung Medical University, priority 2009, published 2011)", "key": {"PZ-HPV-7 cells": {"test_system": "PZ-HPV-7 cells", "details": "Liu et al., 2007; cited from earlier work"}, "[1]": {"test": "Body weight of LNCaP-xenografted rude mice", "type": "in vivo"}, "[2]": {"test_system": "cAMP (cyclic adenosine monophophate)", "test": "cAMP concentration in LNCaP cells", "type": "cell-based, human"}, "[3]": {"test_system": "dihydrotestosterone receptor", "test": "Dihydrotestosterone receptor expression in LNCaP", "type": "cell-based, human", "details": "100 μM, 48 hours, FIG. 10(B)", "protocol": "(§1) The amount of protein is determined by Bio-Rad protein reagent. Bovine serum albumin (BSA) of 0.1 mg/ml is the protein standard in the protein assay. Distilled water of 240 μl containing various known protein standards (the amounts of protein respectively are 0, 2, 4, 8, 12, 16, 20 and 30 μg) and 60 μl of Bio-Rad reagent are mixed gently in 96-well cell culture plate. The absorbance at the wavelength of 595 nm relative to the absorbance of blank test is determined using spectrophotometer (Hitachi U-200, Japan). A standard curve is evaluated from the known amounts of the protein standards and the absorbance thereof, and the amounts of the unknown proteins can be obtained according to this standard curve.\n(§2) The quantified proteins are resolved by sodium dodecyl sulfate-polyacrylamide gel electrophoresis (SDS-PAGE), and the protein expression is evaluated by immunoblotting. The dilution rate of primary antibodies (i.e. anti-AR, anti-p21, anti-p27, anti-cyclin D, anti-cdk4 and anti-cdk6) is 1000 times, and that of anti-β-actin is 5000 times. The primary antibody detects the proteins for 1 hour, and the primary antibody is detected with the horseradish peroxidase (HRP)-conjugated secondary antibody for 1 hour. Finally, the detected protein are developed with enhanced chemical luminescence."}, "LNCaP prostate tumor": {"test_system": "LNCaP prostate tumor", "test": "Tumor size in LNCaP-xenografted rude mice", "type": "in vivo", "details": "for dose at which the significant effect is obtained: data not shown; for effect on LNCaP prostate tumor compared with the control: once per day for two months", "protocol": "In addition to observe the inhibition effect of the halogenated xanthine derivatives on the cancer cell lines in the cellular level, the animal experiments are further performed. LNCaP-xenografted rude mice are injected intraperitoneally with KMUP-1 ([…]) and dosed orally with KMUP-1 (200 and 400 mg/kg) respectively once per day, and a continuity for two months. […] The significant effect can be obtained (data not shown) when KMUP-1 is 100 mg/kg. […] The significant effect can be obtained (data not shown) when KMUP-1 is 200 mg/kg."}, "[4]": {"test_system": "human prostate epithelial PZ-HPV-7", "details": "Liu et al., 2007; cited from earlier work"}, "[5]": {"test_system": "human prostate carcinoma PC-3", "test": "MTT assay, survival rate of PC-3", "details": "various concentrations, 24 and 48 hours, FIG. 7(C)"}, "Bcl-2": {"test_system": "Bcl-2", "test": "Bcl-2 expression in LNCaP", "type": "cell-based, human", "details": "various concentrations, 48 hours, FIG. 16(B)"}, "Bax/Bcl-2 ratio": {"test_system": "Bax/Bcl-2 ratio", "test": "Bax/Bcl-2 ratio in LNCaP", "type": "cell-based, human", "details": "various concentrations, 48 hours, FIG. 16(C)"}, "Cyclin D protein": {"test_system": "Cyclin D protein", "test": "Immunoblotting of Cyclin D in LNCaP", "type": "cell-based, human", "protocol": "as §1, §2"}, "CDK4 protein": {"test_system": "CDK4 protein", "test": "Immunoblotting of CDK4 in LNCaP", "type": "cell-based, human", "protocol": "as §1, §2"}, "[6]": {"test_system": "human prostate carcinoma DU145", "test": "MTT assay, survival rate of DU145", "details": "various concentrations, 24 and 48 hours, FIG. 7(B)"}, "AR (androgen receptor)": {"test_system": "AR (androgen receptor)", "test": "Immunoblotting of AR in LNCaP", "type": "cell-based, human", "details": "100 μM, 48 hours, FIG. 10(A)", "protocol": "as §1, §2"}, "Bax": {"test_system": "Bax", "test": "Bax expression in LNCaP", "type": "cell-based, human", "details": "various concentrations, 48 hours, FIG. 16(A)"}, "p21": {"test_system": "p21", "details": "Liu et al., 2007; cited from earlier work"}, "[7]": {"test_system": "cGMP (3′,5′-cyclic guanosine monophosphate)", "test": "cGMP concentration in LNCaP cells", "type": "cell-based, human", "details": "for cGMP concentration: 48 hours, FIG. 9(A)"}, "[8]": {"test_system": "human tongue squamous cell carcinoma SCC-25", "test": "MTT assay, survival rate of SCC-25", "details": "0.1-100 μM, 24 and 48 hours, FIG. 2"}, "[9]": {"test_system": "human prostate carcinoma LNCaP", "test": "Analysis of cell cycle in LNCaP", "type": "cell-based", "details": "increased concentrations, 24 and 48 hours, FIG. 8", "experimental": "The counted cells (10^5 cells/ml×3 ml) are seeded in the 6-well cell culture plate for 24 hours for attaching on the bottom of the cell culture plate, then DMEM/F12 medium without fetal bovine serum (FBS) is added therein for further incubation for 24 hours. Next, the medium is replaced with DMEM/F12 supplemented with 10% FBS, and the drugs at different concentrations are respectively added therein for reacting 24 and 48 hours. The cellular inoculate is harvested, and the wells are washed with phosphate buffered saline (PBS) for twice or triplet. The cells are eluted with 0.25% trypsin-0.02% EDTA, and are collected with the original inoculate in the centrifuge tube which is centrifuged at 4° C. at 1250×g (1200 rpm) for 5 minutes. Next, the supernatant is discarded and the pellet is resuspended in 1 ml PBS and the resuspended cells are transferred to an eppendorf tube which is centrifuged once again. The supernatant is discarded, and the cells are fixed with 300 μl PBS (4° C.) and 700 μl of 99.5% ethanol (50, 50, 100, 100, 200 and 200 μl ethanol respectively and sequentially added to make the cells resuspended in the well) for 30 minutes. […] The cells are transferred into a tube, and the cells are detected using CyFlow® cytometer. The ratios of G0/G1, S and G2/M phases are determined using multicycle DNA analysis software."}, "p27 protein": {"test_system": "p27 protein", "test": "Immunoblotting of p27 in LNCaP", "type": "cell-based, human", "protocol": "as §1, §2"}, "p21 protein": {"test_system": "p21 protein", "test": "Immunoblotting of p21 in LNCaP", "type": "cell-based, human", "protocol": "as §1, §2"}, "[10]": {"test_system": "human prostate carcinoma LNCaP", "test": "MTT assay, survival rate of LNCaP", "details": "various concentrations, 24 and 48 hours, FIG. 7(A)"}}}
{"smiles": "Cn1c(=O)c2c(ncn2CCN2CCN(c3ccccc3Cl)CC2)n(C)c1=O", "note": "[KMUP-1, 7-[2-[4-(2-chlorobenzene)piperazinyl]ethyl]-1,3-dimethylxanthine]", "values": [{"measurement": "effect on cell cycle of PZ-HPV-7", "setting": "PZ-HPV-7 cells", "value": "cease of cell cycle at G0/G1 phase"}, {"measurement": "body weight, experimental group versus control group", "setting": "[1]; dosed orally, eight weeks, FIG. 18(B)", "value": "do not have significant difference"}, {"measurement": "body weight", "setting": "[1]; subcutaneous injection, FIG. 17(B)", "value": "can decrease the body weight"}, {"measurement": "cAMP concentration versus 100 μM KMUP-1 individually", "setting": "[2]; 100 μM KMUP-1 plus 10 μM SQ22536, 48 hours", "value": "can decrease the amount of cAMP in LNCaP cells"}, {"measurement": "cAMP concentration", "setting": "[2]; KMUP-1 individually, 48 hours, FIG. 9(B)", "value": "increases the amount of cAMP in LNCaP cells"}, {"measurement": "dihydrotestosterone receptor expression", "setting": "[3]", "value": "relatively low"}, {"measurement": "LNCaP prostate tumor size", "setting": "LNCaP prostate tumor; injected subcutaneously, 100 and 150 mg/kg, FIG. 17(A)", "value": "does not enlarge anymore"}, {"measurement": "dose at which the significant effect is obtained", "setting": "LNCaP prostate tumor; intraperitoneal injection", "value": 100, "unit": "mg/kg"}, {"measurement": "effect on LNCaP prostate tumor compared with the control", "setting": "LNCaP prostate tumor; intraperitoneal injection", "value": "can significantly eliminate the LNCaP prostate tumor"}, {"measurement": "dose at which the significant effect is obtained", "setting": "LNCaP prostate tumor; oral dosage", "value": 200, "unit": "mg/kg"}, {"measurement": "effect on LNCaP prostate tumor compared with the control", "setting": "LNCaP prostate tumor; oral dosage", "value": "can significantly eliminate the LNCaP prostate tumor"}, {"measurement": "LNCaP prostate tumor size", "setting": "LNCaP prostate tumor; orally dosed, 400 mg/kg, FIG. 18(A)", "value": "does not enlarge anymore"}, {"measurement": "growth of PZ-HPV-7", "setting": "[4]", "value": "can inhibit the growth"}, {"measurement": "survival rate relative to the control", "setting": "[5]", "value": "decrease with the increased concentrations of KMUP-1"}, {"measurement": "Bcl-2 expression", "setting": "Bcl-2", "value": "decreases with the increased concentration of KMUP-1"}, {"measurement": "Bax/Bcl-2 ratio", "setting": "Bax/Bcl-2 ratio", "value": "increases with the increased concentration of KMUP-1"}, {"measurement": "Cyclin D expression at 100 μM relative to that at 1 μM", "setting": "Cyclin D protein; 24 hours", "value": "one ninth"}, {"measurement": "Cyclin D expression at 100 μM relative to that at 1 μM", "setting": "Cyclin D protein; 48 hours", "value": 20, "unit": "%"}, {"measurement": "Cyclin D expression", "setting": "Cyclin D protein; various concentrations, 24 and 48 hours, FIG. 13", "value": "would be decreased"}, {"measurement": "CDK4 expression at 100 μM relative to that at 1 μM", "setting": "CDK4 protein; 48 hours", "value": 50, "unit": "%"}, {"measurement": "CDK4 expression", "setting": "CDK4 protein; various concentrations, 24 and 48 hours, FIG. 14", "value": "would be decreased"}, {"measurement": "survival rate relative to the control", "setting": "[6]", "value": "decrease with the increased concentrations of KMUP-1"}, {"measurement": "AR expression", "setting": "AR (androgen receptor)", "value": "completely inhibited"}, {"measurement": "Bax expression", "setting": "Bax", "value": "has no difference with the increased concentration of KMUP-1"}, {"measurement": "p21 expression in PZ-HPV-7", "setting": "p21", "value": "increase p21 expression"}, {"measurement": "cGMP concentration", "setting": "[7]; KMUP-1 individually", "value": "increases the content of cGMP"}, {"measurement": "cGMP concentration", "setting": "[7]; together with 1 μM ODQ", "value": "the increased effect is not significant as KMUP-1 individually functioned on LNCaP cells"}, {"measurement": "survival rate relative to the control", "setting": "[8]", "value": "decreases with the increased concentrations of KMUP-1"}, {"measurement": "effect on cell cycle", "setting": "[9]", "value": "cease in G0/G1 phase and tend to sub-G1 phase"}, {"measurement": "p27 expression at 100 μM relative to that at 1 μM", "setting": "p27 protein; 24 hours", "value": "twice"}, {"measurement": "p27 expression", "setting": "p27 protein; various concentrations, 24 and 48 hours, FIG. 12", "value": "would be increased"}, {"measurement": "p21 expression at 100 μM relative to that at 1 μM", "setting": "p21 protein", "value": "four times"}, {"measurement": "p21 expression", "setting": "p21 protein; various concentrations, 24 and 48 hours, FIG. 11", "value": "would be increased"}, {"measurement": "survival rate relative to the control", "setting": "[10]", "value": "decrease with the increased concentrations of KMUP-1"}]}
{"smiles": "O=c1onc2cnc3ccccc3n12", "note": "[ODQ, 1H-[1,2,4]oxadiazolo[4,3-a]quinoxalin-1-one, reference compound]", "values": [{"measurement": "antagonism of the KMUP-1 effect on cGMP", "setting": "[7]; 1 μM ODQ with KMUP-1, 48 hours", "value": "antagonists to each other"}]}
{"smiles": "Nc1ncnc2c1ncn2C1CCCO1", "note": "(stereo not drawn) [SQ22536, reference compound]", "values": [{"measurement": "antagonism of the KMUP-1 effect on cAMP", "setting": "[2]; 10 μM SQ22536 with 100 μM KMUP-1, 48 hours", "value": "can antagonize the improved effect of KMUP-1"}]}
